Measurements taken from patent US10065972B2, “Bicyclic or tricyclic heterocyclic compound” (MITSUBISHI TANABE PHARMA CORPORATION, priority 2014, dated 2018).
Structures can show the parent of a compound that is named as a salt.

Target: human recombinant KAT-II (Homo sapiens (Human), UniProt Q8N5Z0)
Experiment: KAT-II inhibitory test
Type: biochemical
Conditions: 3.0 μmol/L kynurenine, 37° C., 1 hr, pH 8.0; kynurenic acid quantified by HPLC
Outline: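 E. coli-expressed His/MBP-tagged human KAT-II (2.0 ng/μL) incubated with 3.0 μmol/L kynurenine and 10 μmol/L pyridoxal phosphate in Tris-acetate pH 8.0, 1 hr at 37 °C. Reaction stopped with TCA. Kynurenic acid quantified by reversed-phase HPLC with fluorescence detection (ex 354/em 460 nm), duplicate at each concentration.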

Chain of human recombinant KAT-II (Q8N5Z0 30-425): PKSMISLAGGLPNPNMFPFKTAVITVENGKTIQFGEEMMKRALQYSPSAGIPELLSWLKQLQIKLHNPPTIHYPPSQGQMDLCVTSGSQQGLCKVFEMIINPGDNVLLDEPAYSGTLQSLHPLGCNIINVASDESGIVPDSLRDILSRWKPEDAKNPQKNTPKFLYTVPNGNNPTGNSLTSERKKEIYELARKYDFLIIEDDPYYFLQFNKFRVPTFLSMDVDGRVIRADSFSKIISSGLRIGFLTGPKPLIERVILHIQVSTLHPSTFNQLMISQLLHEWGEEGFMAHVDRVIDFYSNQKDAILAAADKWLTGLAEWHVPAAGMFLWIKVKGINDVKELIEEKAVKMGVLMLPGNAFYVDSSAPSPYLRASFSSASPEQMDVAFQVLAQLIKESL

With `Cn1c(-c2ccccc2F)nc2sc(N3CCC[C@@H]3C(=O)NCc3ccccc3)nc2c1=O` [Example 345, (R)-N-benzyl-1-[5-(2-fluorophenyl)-6-methyl-7-oxo-6,7-dihydro[1,3]thiazolo[5,4-d]pyrimidin-2-yl]pyrrolidine-2-carboxamide] the IC50 was 8.7 nM.
In the case of `CNCCn1c(C(F)(F)F)nc2sc(N3CCC[C@@H]3C(=O)NCc3ccccc3)nc2c1=O` [Example 363, (R)-N-benzyl-1-[6-(2-methylaminoethyl)-7-oxo-5-trifluoromethyl-6,7-dihydro[1,3]thiazolo[5,4-d]pyrimidin-2-yl]pyrrolidine-2-carboxamide], the IC50 is reported as 120 nM.
For `CN1CCC(Cn2c(C(F)(F)F)nc3sc(N4CCC[C@@H]4C(=O)NCc4ccccc4)nc3c2=O)CC1` [Example 366, (R)-N-benzyl-1-{6-[(1-methylpiperidin-4-yl)methyl]-7-oxo-5-trifluoromethyl-6,7-dihydro[1,3]thiazolo[5,4-d]pyrimidin-2-yl}pyrrolidine-2-carboxamide], the IC50 was 150 nM.
In the case of `CN(C)CCn1c(C(F)(F)F)nc2sc(N3CCC[C@@H]3C(=O)NCc3ccccc3)nc2c1=O` [Example 372, (R)-N-benzyl-1-{6-[2-(N′,N′-dimethylamino)ethyl]-7-oxo-5-trifluoromethyl-6,7-dihydro[1,3]thiazolo[5,4-d]pyrimidin-2-yl}pyrrolidine-2-carboxamide], the IC50 is reported as 39 nM.
`CN(CCn1c(C(F)(F)F)nc2sc(N3CCC[C@@H]3C(=O)NCc3ccccc3)nc2c1=O)CC(F)(F)F` [Example 373, (R)-N-benzyl-1-[6-{2-[N′-methyl-N′-(2,2,2-trifluoroethyl)amino]ethyl}-7-oxo-5-trifluoromethyl-6,7-dihydro[1,3]thiazolo[5,4-d]pyrimidin-2-yl]pyrrolidine-2-carboxamide hydrochloride] gave an IC50 of 8 nM.
Compound `C[C@H](c1nc2sc(N3CCC[C@@H]3C(=O)NCc3ccccc3)nc2c(=O)n1C)N(C)C` [Example 376, (R)-N-benzyl-1-{5-[(R)-1-(N′,N′-dimethylamino)ethyl]-6-methyl-7-oxo-6,7-dihydro[1,3]thiazolo[5,4-d]pyrimidin-2-yl}pyrrolidine-2-carboxamide] has an IC50 of 14 nM.
`O=C(NCc1ccccc1)[C@H]1CCCN1c1nc2c(=O)n(CCO)c(C(F)(F)F)nc2s1` [Example 396, (R)-N-benzyl-1-[6-(2-hydroxyethyl)-7-oxo-5-trifluoromethyl-6,7-dihydro[1,3]thiazolo[5,4-d]pyrimidin-2-yl]pyrrolidine-2-carboxamide] showed an IC50 of 76 nM.
Compound `CN(C)CCOc1nc2sc(N3CCC[C@@H]3C(=O)NCc3ccccc3)nc2c(=O)n1C` [Example 406, (R)-N-benzyl-1-{5-[2-(N′,N′-dimethylamino)ethoxy]-6-methyl-7-oxo-6,7-dihydro[1,3]thiazolo[5,4-d]pyrimidin-2-yl}pyrrolidine-2-carboxamide] has an IC50 of 370 nM.
In the case of `CC(=O)c1nc2sc(N3CCC[C@@H]3C(=O)NCc3ccccc3)nc2c(=O)n1C` [Example 411, (R)-1-(5-acetyl-6-methyl-7-oxo-6,7-dihydro[1,3]thiazolo[5,4-d]pyrimidin-2-yl)-N-benzylpyrrolidine-2-carboxamide], the IC50 is reported as 15 nM.
With `COc1ccc(Cn2c(C(C)(C)F)nc3sc(N4CCC[C@@H]4C(=O)NCc4ccccc4)nc3c2=O)c(OC)c1` [Example 414, (R)-N-benzyl-1-[6-(2,4-dimethoxybenzyl)-5-(2-fluoropropan-2-yl)-7-oxo-6,7-dihydro[1,3]thiazolo[5,4-d]pyrimidin-2-yl]pyrrolidine-2-carboxamide] the IC50 was 43 nM.
For `CC(C)c1nc2sc(N(C)[C@H](C)C(=O)NCc3ccccc3)nc2c(=O)[nH]1` [Example 486, (R)-N-benzyl-2-{N′-[5-(propan-2-yl)-7-oxo-6,7-dihydro[1,3]thiazolo[5,4-d]pyrimidin-2-yl]-N′-methylamino}propionamide], the IC50 was 15 nM.
For `O=C(NCc1ccccc1)[C@H]1CCCN1c1nc2c(=O)[nH]c(-c3ccccc3F)nc2s1` [Example 489, (R)-N-benzyl-1-[5-(2-fluorophenyl)-7-oxo-6,7-dihydro[1,3]thiazolo[5,4-d]pyrimidin-2-yl]pyrrolidine-2-carboxamide], the IC50 was 6 nM.
For `C[C@@H](NC(=O)[C@H]1CCCN1c1nc2c(=O)[nH]c(-c3ccc(F)cc3F)nc2s1)c1ccccc1` [Example 499, (R)-1-[5-(2,4-difluorophenyl)-7-oxo-6,7-dihydro[1,3]thiazolo[5,4-d]pyrimidin-2-yl]N-((R)-1-phenylethyl)pyrrolidine-2-carboxamide], the IC50 was 7.1 nM.
With `Cc1ccc(-c2nc3sc(N4CCC[C@@H]4C(=O)NCc4ccccc4)nc3c(=O)[nH]2)s1` [Example 500, (R)-N-benzyl-1-[5-(5-methylthiophen-2-yl)-7-oxo-6,7-dihydro[1,3]thiazolo[5,4-d]pyrimidin-2-yl]pyrrolidine-2-carboxamide] the IC50 was 41 nM.
In the case of `Cc1cc(F)c(-c2nc3sc(N4CCC[C@@H]4C(=O)NCc4ccccc4)nc3c(=O)[nH]2)s1` [Example 501, (R)-N-benzyl-1-[5-(3-fluoro-5-methylthiophen-2-yl)-7-oxo-6,7-dihydro[1,3]thiazolo[5,4-d]pyrimidin-2-yl]pyrrolidine-2-carboxamide], the IC50 is reported as 17 nM.
Compound `O=C(NCc1ccccc1)[C@H]1CCCN1c1nc2c(=O)[nH]c(C(F)(F)c3ccccc3)nc2s1` [Example 524, (R)-N-benzyl-1-{5-[difluoro(phenyl)methyl]-7-oxo-6,7-dihydro[1,3]thiazolo[5,4-d]pyrimidin-2-yl}pyrrolidine-2-carboxamide] has an IC50 of 4 nM.
`O=C(NCc1ccccc1)[C@H]1CCCN1c1nc2c(=O)[nH]c(C(F)(F)CCS(=O)(=O)c3ccccc3)nc2s1` [Example 530, (R)-N-benzyl-1-[5-(3-benzenesulfonyl-1,1-difluoropropyl)-7-oxo-6,7-dihydro-[1,3]thiazolo[5,4-d]pyrimidin-2-yl]pyrrolidine-2-carboxamide] gave an IC50 of 19 nM.
With `C[C@H](C(=O)NCc1ccccc1)N(C)c1nc2c(=O)[nH]c(-c3ccccc3F)nc2s1` [Example 532, (R)-N-benzyl-2-{N′-[5-(2-fluorophenyl)-7-oxo-6,7-dihydro[1,3]thiazolo[5,4-d]pyrimidin-2-yl]-N′-methylamino}propionamide] the IC50 was 17 nM.
For `O=C(NCc1ccccc1)[C@H]1CCCN1c1nc2c(=O)[nH]c(C(F)(F)F)nc2s1` [Example 536, (R)-N-benzyl-1-(7-oxo-5-trifluoromethyl-6,7-dihydro[1,3]thiazolo[5,4-d]pyrimidin-2-yl)pyrrolidine-2-carboxamide], the IC50 was 6.9 nM.
In the case of `O=C(NCc1ccccc1)[C@H]1CCCN1c1nc2c(=O)[nH]c(C(F)F)nc2s1` [Example 539, (R)-N-benzyl-1-(5-difluoromethyl-7-oxo-6,7-dihydro[1,3]thiazolo[5,4-d]pyrimidin-2-yl)pyrrolidine-2-carboxamide], the IC50 is reported as 22 nM.
With `O=C(NCc1ccccc1)[C@H]1CCCN1c1nc2c(=O)[nH]c(N3CCC[C@H]3C(F)(F)F)nc2s1` [Example 553, (R)-N-benzyl-1-{7-oxo-5-[(S)-2-(trifluoromethyl)pyrrolidin-1-yl]-6,7-dihydro[1,3]thiazolo[5,4-d]pyrimidin-2-yl}pyrrolidine-2-carboxamide] the IC50 was 43 nM.
With `O=C(NCc1ccccc1)[C@H]1CCCN1c1nc2c(=O)[nH]c(OCC(F)(F)F)nc2s1` [Example 555, (R)-N-benzyl-1-[7-oxo-5-(2,2,2-trifluoroethoxy)-6,7-dihydro[1,3]thiazolo[5,4-d]pyrimidin-2-yl]pyrrolidine-2-carboxamide] the IC50 was 1100 nM.
